{"source": "patent US10273313B2", "about": "“Multimeric mannosides, a process for preparing the same and their uses as a drug” (CENTRE NATIONAL DE LA RECHERCHE SCIENTIFIQUE, priority 2012, dated 2019)", "key": {"[1]": {"system": "AIEC LF82 strain adhesion to T84 intestinal epithelial cells", "assay": "Adhesion assay on T84 cells, cells incubated 1 h with mannoside prior infection (Example 21.1)", "assay_type": "cell-based, Escherichia coli", "procedure": "E. coli strain LF82 was isolated from a chronic ileal lesion of a patient with Crohn's disease (CD). Bacteria were grown routinely in Luria-Bertani (LB) broth overnight at 37° C. Intestinal epithelial cells T84 derived from colonic adenocarcinoma were maintained in an atmosphere containing 5% CO2 at 37° C. in DMEM/F12 (50/50) medium supplemented with 10% (v/v) heat-inactivated fetal calf serum (FCS), 1% L-glutamine, 100 000 U·l^−1 penicillin, 100 mg·l^−1 streptomycin, 25 μg·l^−1 amphotericin B.\nT84 cells were seeded in 48-well tissue culture plates with 1.5×10^5 cells per well and grown for 48 h. Cells were incubated 1 h prior infection with each mannoside at a final concentration of 100; 10; 1 or 0.1 μM in complete medium without antibiotics, containing heat inactivated fetal calf serum (FCS) and were next infected with AIEC LF82 strain at a multiplicity of infection (MOI) of 10 bacteria per cell. After a 3 h incubation period at 37° C., the monolayers were washed in phosphate-buffered saline (PBS; pH 7.2). The epithelial cells were then lysed with 1% Triton X-100 in deionized water. Samples were diluted and plated onto Luria Bertani agar plates to determine the number of cfu recovered from the lysed monolayers.\nResults were expressed in percentage of residual adhesion, considering adhesion level of AIEC LF82 without mannoside treatment as 100%."}, "[2]": {"system": "AIEC LF82 bacteria in colonic loops of CEABAC10 mice expressing human CEACAM6", "assay": "Adhesion assay in colonic loops of CEABAC10 mice", "assay_type": "in vivo", "conditions": "dose of 0.1 μmol, 4 h incubation", "procedure": "E. coli strain LF82 was isolated from a chronic ileal lesion of a patient with Crohn's disease (CD). Bacteria were grown routinely in Luria-Bertani (LB) broth overnight at 37° C.\nThe transgenic mouse model CEABAC10 expressing the human CEACAM6 protein is available in the UMR Inserm/Université d'Auvergne 1071 led by Professor Arlette Darfeuille-Michaud at Clermont-Ferrand. This model is particularly suitable to reproduce the abnormal colonization by AIEC bacteria through the interaction with CEACAM6 molecules that were observed abnormally expressed in the ileal mucosa of Crohn's disease patients.\nThree colonic loops were realized in anesthetized CEABAC10 mice. A volume of 100 μl of a bacterial suspension containing 6×10^6 bacteria/mL with or without inhibitory compound was injected into the loops (here, compound 2, example 1) or heptyl-mannose at a concentration of 100 μM). After an incubation period of 4 h, mice were euthanized and each loop was longitudinally opened, extensively washed and homogenized to numerate adherent LF82 bacteria. Bacterial adhesion was expressed as percentages of residual adhesion (100% corresponds to the adhesion in absence of any compound)."}, "FimH": {"biological_target": "FimH (Escherichia coli, UniProt P08191)", "sequence (P08191 22-300)": "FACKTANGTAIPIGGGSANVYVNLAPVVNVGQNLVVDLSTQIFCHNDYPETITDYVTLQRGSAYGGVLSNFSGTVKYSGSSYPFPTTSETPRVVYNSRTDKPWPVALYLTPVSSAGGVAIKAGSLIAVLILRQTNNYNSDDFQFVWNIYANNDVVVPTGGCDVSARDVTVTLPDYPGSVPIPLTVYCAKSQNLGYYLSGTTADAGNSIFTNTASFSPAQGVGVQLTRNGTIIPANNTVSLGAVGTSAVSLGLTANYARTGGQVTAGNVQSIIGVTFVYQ", "conditions": "Isothermal Titration calorimetry (ITC); read-out: Dissociation constant of the HM-FimH complex; cited from earlier work"}, "[3]": {"system": "AIEC strain LF82 adhesion to T84 intestinal epithelial cells", "assay": "Adhesion assay on T84 cells with thiazolylaminomannosides (Example 22.3)", "assay_type": "cell-based, Escherichia coli", "in_short": "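CEACAM6-overexpressing T84 cells pre-incubated 1 h with compound (0.1, 1, 10, 100 μM), then infected with AIEC LF82 at MOI 10 for 3 h in compound presence. Cell-associated bacteria counted after washing; residual adhesion expressed relative to untreated (100%).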"}}, "data": [{"smiles": "OCC1OC(OCCCCCCCOCc2cn(CC3OC4OC5C(Cn6cc(COCCCCCCCOC7OC(CO)C(O)C(O)C7O)nn6)OC(OC6C(Cn7cc(COCCCCCCCOC8OC(CO)C(O)C(O)C8O)nn7)OC(OC7C(Cn8cc(COCCCCCCCOC9OC(CO)C(O)C(O)C9O)nn8)OC(OC8C(Cn9cc(COCCCCCCCOC%10OC(CO)C(O)C(O)C%10O)nn9)OC(OC9C(Cn%10cc(COCCCCCCCOC%11OC(CO)C(O)C(O)C%11O)nn%10)OC(OC%10C(Cn%11cc(COCCCCCCCOC%12OC(CO)C(O)C(O)C%12O)nn%11)OC(OC3C(O)C4O)C(O)C%10O)C(O)C9O)C(O)C8O)C(O)C7O)C(O)C6O)C(O)C5O)nn2)C(O)C(O)C1O", "note": "(stereo not shown) [Compound 2]", "values": [{"measurement": "Concentration reaching around 75% of binding inhibition (25% line)", "setting": "[1]", "value": 1, "unit": "µM"}, {"measurement": "Bacterial adhesion in colonic loops compared with no inhibitor", "setting": "[2]", "value": "two-fold decreased adhesion"}]}, {"smiles": "CCCCCCCO[C@H]1O[C@H](CO)[C@@H](O)[C@H](O)[C@@H]1O", "note": "[HM, Heptylmannoside, reference compound]", "values": [{"measurement": "Kd", "setting": "FimH", "value": 7, "unit": "nM"}, {"measurement": "Inhibitory potency relative to α-D-mannose", "setting": "[3]", "value": 100, "unit": "times"}, {"measurement": "Inhibitory effect on adhesion", "setting": "[3]; 100 nM", "value": "no significant effect"}, {"measurement": "AIEC remaining attached to the cells (residual adhesion)", "setting": "[3]; 1 μM", "value": "No significant decrease"}, {"measurement": "Residual adhesion", "setting": "[3]; 10 μM", "value": 52.4, "unit": "%"}]}]}
